This note sets out measurements from patent publication US11014911B2, “CDK2 inhibitors” (Pfizer Inc., priority 2019, dated 2021).

Broadly, the Ki is a dissociation constant, usually derived from enzyme kinetics or from competition with a known ligand.

SMILES strings stand for the structures.

This assay addresses CDK2/Cyclin E1 full length (Homo sapiens (Human), UniProt P24941). The assay can be described thus: CDK2/Cyclin E1 full length mobility shift assay. The assay is classed as biochemical.
For the compound `Cc1cnc(CC(=O)Nc2cc([C@H]3CC[C@@H](OC(=O)NC4(C)CCOCC4)C3)[nH]n2)o1` [Example 508, (1R,3S)-3-(3-{[(5-methyl-1,3-oxazol-2-yl)acetyl]amino}-1H-pyrazol-5-yl)cyclopentyl (4-methyltetrahydro-2H-pyran-4-yl)carbamate], the inhibition constant (Ki) turned out to be 1.46 nM. Take `COc1cc(CC(=O)Nc2cc([C@@H]3CC[C@H](OC(=O)NCC4CCOCC4)C3)[nH]n2)ccn1` [Example 512, (1S,3R)-3-(3-{[(2-methoxypyridin-4-yl)acetyl]amino}-1H-pyrazol-5-yl)cyclopentyl (tetrahydro-2H-pyran-4-ylmethyl)carbamate]: the Ki worked out at 3.2 nM. For `O=C(Cc1cc(F)cc(F)c1)Nc1cc([C@@H]2CC[C@H](OC(=O)NCC3CCOCC3)C2)[nH]n1` [Example 513, (1S,3R)-3-(3-{[(3,5-difluorophenyl)acetyl]amino}-1H-pyrazol-5-yl)cyclopentyl (tetrahydro-2H-pyran-4-ylmethyl)carbamate], the Ki amounted to 3.19 nM. Regarding `O=C(Cc1ccc(C(F)(F)F)nc1)Nc1cc([C@@H]2CC[C@H](OC(=O)NCC3CCOCC3)C2)[nH]n1` [Example 514, (1S,3R)-3-[3-({[6-(trifluoromethyl)pyridin-3-yl]acetyl}amino)-1H-pyrazol-5-yl]cyclopentyl (tetrahydro-2H-pyran-4-ylmethyl)carbamate], the Ki was determined as 2.78 nM. With `COC[C@H](C)NC(=O)O[C@@H]1CC[C@H](c2cc(NC(=O)Cc3ccccc3)[nH]n2)C1` [Example 517, (1R,3S)-3-{5-[(phenylacetyl)amino]-1H-pyrazol-3-yl}cyclopentyl [(2S)-1-methoxypropan-2-yl]carbamate], the inhibitory constant (Ki) was 1.29 nM. With `COC[C@H](C)NC(=O)O[C@@H]1CC[C@H](c2cc(NC(=O)c3cc(OC)nn3C)n[nH]2)C1` [Example 518, (1R,3S)-3-(3-{[(3-methoxy-1-methyl-1H-pyrazol-5-yl)carbonyl]amino}-1H-pyrazol-5-yl)cyclopentyl [(2S)-1-methoxypropan-2-yl]carbamate] the figure was 1.43 nM; with `COC[C@H](C)NC(=O)O[C@@H]1CC[C@H](c2cc(NC(=O)Cc3ccc(OC)nc3)n[nH]2)C1` [Example 519, (1R,3S)-3-(3-{[(6-methoxypyridin-3-yl)acetyl]amino}-1H-pyrazol-5-yl)cyclopentyl [(2S)-1-methoxypropan-2-yl]carbamate], 0.56 nM.

On to `COC[C@H](C)NC(=O)O[C@@H]1CC[C@H](c2cc(NC(=O)Cc3cnc(OC)cn3)n[nH]2)C1` [Example 520, (1R,3S)-3-(3-{[(5-methoxypyrazin-2-yl)acetyl]amino}-1H-pyrazol-5-yl)cyclopentyl [(2S)-1-methoxypropan-2-yl]carbamate], for which the Ki is 2.88 nM.

For `COCc1cc(C(=O)Nc2cc([C@H]3CC[C@@H](OC(=O)N[C@@H](C)COC)C3)n[nH]2)n(C)n1` [Example 521, (1R,3S)-3-[5-({[3-(methoxymethyl)-1-methyl-1H-pyrazol-5-yl]carbonyl}amino)-1H-pyrazol-3-yl]cyclopentyl [(2S)-1-methoxypropan-2-yl]carbamate], the inhibitory constant (Ki) worked out at 1.95 nM. For `COC[C@H](C)NC(=O)O[C@@H]1CC[C@H](c2cc(NC(=O)Cc3ncc(OC)s3)n[nH]2)C1` [Example 522, (1R,3S)-3-(3-{[(5-methoxy-1,3-thiazol-2-yl)acetyl]amino}-1H-pyrazol-5-yl)cyclopentyl [(2S)-1-methoxypropan-2-yl]carbamate], the Ki was determined as 3.05 nM. With `COC[C@H](C)NC(=O)O[C@@H]1CC[C@H](c2cc(NC(=O)Cc3cnc(C(F)(F)F)cn3)n[nH]2)C1` [Example 523, (1R,3S)-3-[3-({[5-(trifluoromethyl)pyrazin-2-yl]acetyl}amino)-1H-pyrazol-5-yl]cyclopentyl [(2S)-1-methoxypropan-2-yl]carbamate], the Ki stood at 2.49 nM.

`COc1ccc(CC(=O)Nc2cc([C@@H]3CC[C@H](OC(=O)N[C@H]4CC[C@@H](O)CC4)C3)[nH]n2)cn1` [Example 553, (1S,3R)-3-(3-{[(6-methoxypyridin-3-yl)acetyl]amino}-1H-pyrazol-5-yl)cyclopentyl (cis-4-hydroxycyclohexyl)carbamate]: the Ki was 0.41 nM. Regarding `COc1ccc(CC(=O)Nc2cc([C@@H]3CC[C@H](OC(=O)N[C@H]4CC[C@H](O)CC4)C3)[nH]n2)cn1` [Example 556, (1S,3R)-3-(3-{[(6-methoxypyridin-3-yl)acetyl]amino}-1H-pyrazol-5-yl)cyclopentyl (trans-4-hydroxycyclohexyl)carbamate], the Ki is 0.46 nM. Regarding `C[C@]1(O)CC[C@H](NC(=O)O[C@H]2CC[C@@H](c3cc(NC(=O)Cc4ccc(F)cc4)n[nH]3)C2)CC1` [Example 561, (1S,3R)-3-(3-{[(4-fluorophenyl)acetyl]amino}-1H-pyrazol-5-yl)cyclopentyl (trans-4-hydroxy-4-methylcyclohexyl)carbamate], the Ki was found to be 1.8 nM. The same measure for `COc1ccc(CC(=O)Nc2cc([C@H]3CC[C@@H](OC(=O)N[C@H]4CC[C@](C)(O)CC4)C3)[nH]n2)cc1` [Example 567, (1R,3S)-3-(3-{[(4-methoxyphenyl)acetyl]amino}-1H-pyrazol-5-yl)cyclopentyl (trans-4-hydroxy-4-methylcyclohexyl)carbamate]: 1.61 nM; for `CC(C)(O)CNC(=O)O[C@@H]1CC[C@H](c2cc(NC(=O)Cc3cc(F)cc(F)c3)n[nH]2)C1` [Example 574, (1R,3S)-3-(3-{[(3,5-difluorophenyl)acetyl]amino}-1H-pyrazol-5-yl)cyclopentyl (2-hydroxy-2-methylpropyl)carbamate]: 4.07 nM.

For `O=C(Cc1cc(F)cc(F)c1)Nc1cc([C@@H]2CC[C@H](OC(=O)NC[C@H]3C[C@@H](O)C3)C2)[nH]n1` [Example 575, (1S,3R)-3-(3-{[(3,5-difluorophenyl)acetyl]amino}-1H-pyrazol-5-yl)cyclopentyl [(cis-3-hydroxycyclobutyl)methyl] carbamate], the Ki turned out to be 2.28 nM. On to `O=C(Cc1cc(F)cc(F)c1)Nc1cc([C@@H]2CC[C@H](OC(=O)NC[C@H]3C[C@H](O)C3)C2)[nH]n1` [Example 576, (1S,3R)-3-(3-{[(3,5-difluorophenyl)acetyl]amino}-1H-pyrazol-5-yl)cyclopentyl [(trans-3-hydroxycyclobutyl)methyl] carbamate], for which the Ki is 1.99 nM.

With `O=C(Cc1ccc(C(F)(F)F)nc1)Nc1cc([C@@H]2CC[C@H](OC(=O)NC[C@H]3C[C@H](O)C3)C2)[nH]n1` [Example 577, (1S,3R)-3-[3-({[6-(trifluoromethyl)pyridin-3-yl]acetyl}amino)-1H-pyrazol-5-yl]cyclopentyl[(trans-3-hydroxycyclobutyl)methyl]-carbamate], the inhibitory constant (Ki) came out at 3.36 nM. In the case of `O=C(Cc1cc(F)cc(F)c1)Nc1cc([C@@H]2CC[C@H](OC(=O)NC[C@@H]3C[C@H]3CO)C2)[nH]n1` [Example 578, (1S,3R)-3-(3-{[(3,5-difluorophenyl)acetyl]amino}-1H-pyrazol-5-yl)cyclopentyl {[(1R,2R)-2-(hydroxymethyl)cyclopropyl]-methyl}carbamate], the inhibitory constant (Ki) was 3.64 nM. Turning to `O=C(Cc1cc(F)cc(F)c1)Nc1cc([C@@H]2CC[C@H](OC(=O)NC[C@H]3C[C@@H]3CO)C2)[nH]n1` [Example 579, (1S,3R)-3-(3-{[(3,5-difluorophenyl)acetyl]amino}-1H-pyrazol-5-yl)cyclopentyl {[(1S,2S)-2-(hydroxymethyl)cyclopropyl]-methyl}carbamate], the Ki was determined as 2.41 nM. Regarding `O=C(Cc1ccc(C(F)(F)F)nc1)Nc1cc([C@@H]2CC[C@H](OC(=O)NC[C@H]3C[C@@H]3CO)C2)[nH]n1` [Example 580, (1S,3R)-3-[3-({[6-(trifluoromethyl)pyridin-3-yl]acetyl}amino)-1H-pyrazol-5-yl]cyclopentyl {[(1S,2S)-2-(hydroxymethyl)cyclopropyl]-methyl}carbamate], the inhibitory constant (Ki) was determined as 3.38 nM. With `COc1cc(CC(=O)Nc2cc([C@@H]3CC[C@H](OC(=O)NCC4CCN(C(C)=O)CC4)C3)[nH]n2)ccn1` [Example 581, (1S,3R)-3-(3-{[(2-methoxypyridin-4-yl)acetyl]amino}-1H-pyrazol-5-yl)cyclopentyl[(1-acetylpiperidin-4-yl)methyl]carbamate] the figure was 2.62 nM; with `CC(=O)N1CCC(CNC(=O)O[C@H]2CC[C@@H](c3cc(NC(=O)Cc4cc(F)cc(F)c4)n[nH]3)C2)CC1` [Example 582, (1S,3R)-3-(3-{[(3,5-difluorophenyl)acetyl]amino}-1H-pyrazol-5-yl)cyclopentyl [(1-acetylpiperidin-4-yl)methyl]carbamate], 2.23 nM. For `C[C@H]1CCN1C(=O)O[C@@H]1CC[C@H](c2cc(NC(=O)c3cncn3C)n[nH]2)C1` [Example 585, (1R,3S)-3-(3-{[(1-methyl-1H-imidazol-5-yl)carbonyl]amino}-1H-pyrazol-5-yl)cyclopentyl (2S)-2-methylazetidine-1-carboxylate], the Ki stood at 2.57 nM. Consider `C[C@@H]1CCN1C(=O)O[C@@H]1CC[C@H](c2cc(NC(=O)Cc3cnn(C)c3)n[nH]2)C1` [Example 587, (1R,3S)-3-(3-{[(1-methyl-1H-pyrazol-4-yl)acetyl]amino}-1H-pyrazol-5-yl)cyclopentyl (2R)-2-methylazetidine-1-carboxylate], for which the Ki stood at 2.77 nM. With `C[C@H]1CCN1C(=O)O[C@@H]1CC[C@H](c2cc(NC(=O)Cc3cnn(C)c3)n[nH]2)C1` [Example 588, (1R,3S)-3-(3-{[(1-methyl-1H-pyrazol-4-yl)acetyl]amino}-1H-pyrazol-5-yl)cyclopentyl (2S)-2-methylazetidine-1-carboxylate] the figure was 0.75 nM; with `Cc1cnc(CC(=O)Nc2cc([C@H]3CC[C@@H](OC(=O)N4CC[C@@H]4C)C3)[nH]n2)cn1` [Example 591, (1R,3S)-3-(3-{[(5-methylpyrazin-2-yl)acetyl]amino}-1H-pyrazol-5-yl)cyclopentyl (2S)-2-methylazetidine-1-carboxylate], 1.67 nM; with `COc1cnc(CC(=O)Nc2cc([C@H]3CC[C@@H](OC(=O)N4CC[C@@H]4C)C3)[nH]n2)cn1` [Example 592, (1R,3S)-3-(3-{[(5-methoxypyrazin-2-yl)acetyl]amino}-1H-pyrazol-5-yl)cyclopentyl (2S)-2-methylazetidine-1-carboxylate], 2.27 nM.
